The target of the assay is angiotensin II receptor. In words: displacement of 125I- or 3H-angiotensin II from receptor preparations from various organs (liver, lung, adrenal gland, brain etc.). Conditions: "according to the abovementioned process"; which of the two binding methods is not stated. The method, then: Bound and free radioligand are then separated by filtration through micro glass fiber filters (GF51, Schleicher & Schull) on a cell collector (SKATRON).
By measurement of the receptor-bund radioactivity on the filters by means of a beta spectrometer or gamma spectrometer, the degree of displacement of the radioligand from the receptor by the test compounds is determined.
`CCCCc1nc2cccc(C(=O)O)c2n1Cc1ccn2c(C(=O)O)c(-c3ccccc3)nc2n1` [Example 3, 2-n-Butyl-1-[(3-carboxy-2-phenylimidazo[1,2-a]pyrimidin-7-yl)methyl]-1H-benzimidazole-7-carboxylic acid] displayed a 50% inhibitory concentration (IC50) of 149 nM.
Molecule “2-n-Butyl-3-[(2'-allylaminocarbonylaminosulfonylbiphenyl-4-yl)-methyl]-3H-imidazo-[4,5-b]/[5,4-b]pyridine [Example 27]” came in with an IC50 of 1.1 nM.
To `CCCCc1nc2cccc(C(=O)O)c2n1Cc1ccn2c(C(=O)O)c(-c3ccccc3)nc2c1` [Example 2, 2-n-Butyl-1-[(3-carboxy-2-phenylimidazo[1,2-a]pyridin-7-yl)methyl]-1H-benzimidazole-7-carboxylic acid] belongs 65 nM; to `C=CCOC(=O)N(C(=O)OCC=C)S(=O)(=O)c1ccccc1-c1ccc(Cn2c(CC)nc3c(C)cc(C)nc32)cc1` [Example 15], 0.8 nM; to `CCCNC(=O)NS(=O)(=O)c1ccccc1-c1ccc(Cn2c(CC)nc3c(C)cc(C)nc32)cc1` [Example 51], 1.8 nM.
To `CCNC(=O)NS(=O)(=O)c1ccccc1-c1ccc(Cn2c(CC)nc3c(C)ccnc32)cc1` [Example 31, 2-Ethyl-3-[(2'-ethylaminocarbonylaminosulfonylbiphenyl-4-yl)methyl]-7-methyl-imidazo[4,5-b]pyridine] belongs 0.48 nM; to `CCCCc1nc2cccc(C(=O)O)c2n1Cc1ccc(-c2ccccc2S(=O)(=O)NC(=O)OCC)cc1` [Example 19, 2-n-Butyl-1-[(2'-ethoxycarbonylaminosulfonylbiphenyl-4-yl)methyl]-1H-benzimidazole-7-carboxylic acid], 0.74 nM.
The molecule `CCCCc1nc2cccc(C(=O)O)c2n1Cc1ccc2c(Cl)c(C(=O)O)sc2c1` [Example 1, 2-n-Butyl-1-[(2-carboxy-3-chlorobenzo[b]thiophen-6-yl)-methyl]-1H-benzimidazole-7-carboxylic acid] yielded an IC50 of 78 nM. This IC50 lies about 110-fold higher than the previous one.

Source of the values: patent US5635525A, “Benzimidazole derivatives as angiotensin II receptor antagonists, pharmacticals, and treatment of hypertension therewith” (Hoechst Aktiengesellschaft, priority 1991, dated 1997).
